Data reported in patent publication US7723467B2, “Antimicrobial compounds” (New England Medical Center Hospitals, Inc., priority 2000, dated 2010).
Like-named read-outs stand apart in the source and are kept apart here. Non-standard residues stand in square brackets, D forms with d. No end group written: not given here.

Tests used:
Format in all cases: cell-based
[1] = test system: Enterococcus faecalis ATCC 19212
Protocol: (§1) The assays are standardized by using a predictable predetermined number of cells, and the lowest observed concentration of the agent that inhibits growth is defined as the minimum inhibitory concentration (MIC).
(§2) Antimicrobial activity, specifically antibacterial activity, was assayed using cells of each of Staphylococcus aureus NCTC 4163, Escherichia coli NCTC 8196, Pseudomonas aeruginosa NCTC 6749, Proteus vulgaris NCTC 4635, and Enterococcus faecalis ATCC 19212. To determine the minimum inhibitory concentration (MIC), the microdilution broth method, well-known to one of ordinary skill in the art of microbiology, was used. Cells of each bacterial strain were collected in the logarithmic phase of growth, and resuspended in nutrient broth. The concentration of colony-forming units (CFU) per milliliter was quantified by measuring absorption of light at 600 nm (A600).
(§3) Peptide samples were dissolved in nutrient broth (pH 7.0) and diluted serially. The sample solution (100 μl) was mixed with the diluted bacterial suspension (100 μl). Mixtures containing 105 bacterial CFU, and from 1% to 0.003% of test peptides, were incubated for 24 h at 37° C. […] The indolicidin antibacterial property with cells of S. aureus was used as a positive control reference.

[2] = test system: Candida albicans NCTC 10231
Protocol: Anti-fungal activity is similarly assayed, using log phase vegetative fungal cells.
(§4) Antifungal activity was assayed using Candida albicans NCTC 10231 as a target fungus. Candida cells in the logarithmic phase of growth were suspended in dextrose broth medium at a density of 10^5 CFU/ml. A mixture of the sample solution (100 μl) and the fungal suspension (100 μl) was incubated for 24 h at 37° C.

[3] = test system: Pseudomonas aeruginosa NCTC 6749
Protocol: as §1, §2, §3

microorganisms tested = experiment: Antimicrobial activity across the microorganisms tested; conditions: compared with SP
Protocol: as §2, §3, §4

[4] = test system: Escherichia coli NCTC 8196
Protocol: as §1, §2, §3

[5] = test system: Proteus vulgaris NCTC 4635
Protocol: as §1, §2, §3

[6] = test system: Staphylococcus aureus NCTC 4163
Protocol: as §1, §2, §3

microorganism = experiment: Mixing experiments of SP with SP antagonist
[7] = 100% inhibition of growth, 24 h at 37° C., nutrient broth pH 7.0
[8] = dextrose broth, 24 h at 37° C., turbidity

| Substance | Minimal Inhibitory Concentration MIC (%) E. faecalis [1, 7] | potency against C. albicans relative to SP or bradykinin [2] | activity compared with indolicidin ([2]; cells of C. albicans) | Minimal Inhibitory Concentration MIC (%) C. albicans [2, 8] | Minimal Inhibitory Concentration MIC (%) P. aeruginosa [3, 7] | MIC fold higher (weaker potency) on the other bacteria tested (microorganisms tested) | Minimal Inhibitory Concentration MIC (%) E. coli [4, 7] | Minimal Inhibitory Concentration MIC (%) P. vulgaris [5, 7] | Minimal Inhibitory Concentration MIC (%) S. aureus [6, 7] | antifungal properties against C. albicans [2] | blocking of the antimicrobial effect by the presence of SP antagonist (microorganism) | antimicrobial potency compared with indolicidin ([6]; cells of S. aureus) | Minimal Inhibitory Concentration MIC (%) E. faecalis ([1]; ATCC 19212, 24 h, pH 7) | Minimal Inhibitory Concentration MIC (%) C. albicans ([2]; NCTC 10231, 24 h) | Minimal Inhibitory Concentration MIC (%) P. aeruginosa ([3]; NCTC 6749, 24 h, pH 7) | Minimal Inhibitory Concentration MIC (%) E. coli ([4]; NCTC 8196, 24 h, pH 7) | Minimal Inhibitory Concentration MIC (%) P. vulgaris ([5]; NCTC 4635, 24 h, pH 7) | Minimal Inhibitory Concentration MIC (%) S. aureus ([6]; NCTC 4163, 24 h, pH 7) |
| --- | --- | --- | --- | --- | --- | --- | --- | --- | --- | --- | --- | --- | --- | --- | --- | --- | --- | --- |
| Arg-D-Pro-Lys-Pro-Gln-Gln-D-Trp-Phe-D-Trp-Leu-MetNH2 (R[dP]KPQQ[dW]F[dW]LM-NH2; N-terminus assumed; SMILES CSCC[C@H](NC(=O)[C@H](CC(C)C)NC(=O)[C@@H](Cc1c[nH]c2ccccc12)NC(=O)[C@H](Cc1ccccc1)NC(=O)[C@@H](Cc1c[nH]c2ccccc12)NC(=O)[C@H](CCC(N)=O)NC(=O)[C@H](CCC(N)=O)NC(=O)[C@@H]1CCCN1C(=O)[C@H](CCCCN)NC(=O)[C@H]1CCCN1C(=O)[C@@H](N)CCCNC(=N)N)C(N)=O; listed as Homo sapiens) [SEQ ID NO: 2] | 0.13% | approximately 10 times | comparable to that of indolicidin | 0.03% | 0.13% | 10- to 20 fold | 0.13% | 0.13% | 0.13% | – | – | – | – | – | – | – | – | – |
| Arg-Pro-Lys-Pro-Gln-Gln-Phe-Phe-Gly-Leu-MetNH2 [SEQ ID NO: 1] | 0.13% | – | – | 0.25% | 0.13% | – | 0.06% | 0.13% | 0.007% | found to have antifungal properties | not to be blocked | equally potent to indolicidin | – | – | – | – | – | – |
| Ile-Leu-Pro-Trp-Lys-Trp-Pro-Trp-Trp-Pro-Trp-Arg-Arg-NH2 (ILPWKWPWWPWRR-NH2; listed as Homo sapiens) [Indolicidin, reference compound] | – | – | – | 0.015% | – | – | 0.007% | – | 0.003% | – | – | – | – | – | – | – | – | – |
| RPPGFSPFR [Bradykinin, reference compound] | – | – | – | – | – | – | – | – | – | – | – | – | >1% | 0.25% | 1.0% | 0.5% | 0.5% | 0.5% |
